The subject of test [1] is staphylococcus ATTC6341(Sa). The experiment in a line: Antibacterial activity, zone of inhibition, penicillin sensitive Sa strain. The test is classed as cell-based. On the procedure: (§1) Next, the antibacterial activity of the prepared sulfur-containing BPA-FBz compounds is evaluated using two strains of staphylococcus ATTC6341(Sa) and ATTC11632(Sr), and the results are shown in Table 2. In particular, the Sa strain and the Sr strain have different sensitivities to antibiotics. The Sa strain is penicillin sensitive, and the Sr strain is penicillin resistant, and ampicillin is used as positive control. It can be known from Table 2 that, none of BPA-FBz and sulfur-containing BPA-FBz compounds having low sulfur content (i.e., compounds 1 and 2) has antibacterial activity.

Test [2] concerns staphylococcus ATTC11632(Sr). The experiment in a line: Antibacterial activity, zone of inhibition, penicillin resistant Sr strain. It counts as cell-based. On the procedure:
as §1

Setting [3] is: dash = no antibacterial activity.

As for `CC1(C)S[C@@H]2[C@H](NC(=O)[C@H](N)c3ccccc3)C(=O)N2[C@H]1C(=O)O` [Ampicillin, ampicillin], the Zone of inhibition in test [1] (setting [3]) turned out to be 34.0 mm; in test [2] (setting [3]), 9.0 mm.
As to `CC(C)(c1ccc2c(c1)CN(Cc1ccco1)CO2)c1ccc2c(c1)CN(Cc1ccco1)CO2` [BPA-FBz, bis(3-furfuryl-3,4-dihydro-2H-1,3-benzoxazinyl)isopropane], the “antibacterial activity (in words)” value in test [1] and in test [2] was “none” each time.
